Reference: patent US20250129021A1, “SMALL MOLECULE PROTEIN SYNTHESIS MODULATORS” (Interdict Bio, Inc., priority 2023, published 2025)
pIC50: −log10 of the molar value. Each block holds one compound with its values, some of them ahead of it.

Experiments:
Assay type in all cases: biochemical
MYC = test: In vitro transcription-translation (IVTT) assay, MYC reporter; conditions: IVTT assay, HeLa S3 lysate, MYC reporter, normalized sfGFP/mCherry ratio; half-log dilutions 30 μM-0.1 μM, 2 hrs at 30° C.
Summary of the method: (§1)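 Reporter: mCherry, P2A, then 3×FLAG-target peptide-sfGFP fusion, IRES-initiated; HeLa S3 lysate IVTT; cpd dilutions 30 μM−0.1 μM half-log in 100% DMSO (dilution-plate conc); DNA added last; 2 h, 30° C; PBS quench.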

MCL-1 = test: In vitro transcription-translation (IVTT) assay, MCL-1 reporter; conditions: IVTT assay, HeLa S3 lysate, sfGFP/mCherry ratio; read-out: MCL1 IC50
Summary of the method: as §1

CCND1 = test: In vitro transcription-translation (IVTT) assay, CCND1 reporter; conditions: IVTT assay, HeLa S3 lysate, sfGFP/mCherry ratio
Summary of the method: as §1

CCNTB1 = test: In vitro transcription-translation (IVTT) assay, CCNTB1 reporter; conditions: HeLa S3 lysate, sfGFP/mCherry ratio
Method: In vitro transcription-translation assay setup: Each assay includes a master mix containing lysate and shared components, a 96-well plate containing compound titrations for testing, a 96-well DNA plate with reporter constructs to be tested, 96-well skirted PCR plates, and 96-well flat-bottom, black, fluorescent assay plates. Reaction materials setup: (A) Master mix—15 mL conical tube (3 mL of HeLa S3 Lysate described above; 0.6 mL of ThermoFisher Accessory Proteins (#88882); 1.2 ml of ThermoFisher Reaction Mix (#88882); 0.54 mL of nuclease-free Water); (B) 96-Well Master Mix+Compound Plate (Half-log dilutions (30 μM−0.1 μM) of 4 compounds of interest are prepared in 100% DMSO); 96-Well DNA Plate (Five DNA constructs are plated into single columns within the plate. Row 1 of the column contains nuclease free H2O, all other wells contain 110 ng/μL plasmid DNA). Reactions are started by mixing 155 μL of master mix and 3.5 μL of compound serial dilutions, then 9.1 μL of master mix+compound mixture is aliquoted across 5 96-well plates. Reactions begin with final addition of 2 μL of DNA for a 11.1 μL reaction volume in each well. The entire plate is sealed, and incubated for 2 hrs at 30° C. After 2 hrs, quench the assay using 45 μL of PBS, and transfer 50 μL to a flat-bottom black microplate Quantify the sfGFP and mCherry signals from each well on each plate, taking 3 reads of each plate, and perform data analysis below.
In vitro transcription-translation assay data analysis: Each plate is read three times in channels for both sfGFP and mCherry signals. The average signal across these 3 reads is then calculated for further analysis. Control wells containing no DNA reporter are subtracted from reporter wells in the same column to remove auto-fluorescence of the lysate. Then, the ratio of sfGFP/mCherry is calculated per well, and these ratios are averaged across the triplicate experiments on the same plate. Finally, the ratio of each titration concentration is normalized to the no drug control to create the normalized stalling metric. The error on this measurement is determined by propagating error through the averaging and normalization steps. Values are plotted and fit for IC50 determination for each test sequence and titration of compound.

Structure (SMILES): O=C(NCc1ccc2c(c1)CCNC2)O[C@@H]1[C@@H](O)CN[C@@H]1Cc1ccc(-c2ccc(C(F)(F)F)cc2)cc1 [V192058, (2R,3S,4S)-4-hydroxy-2-{[4′-(trifluoromethyl)-[1,1′-biphenyl]-4-yl]methyl}pyrrolidin-3-yl N-(1,2,3,4-tetrahydroisoquinolin-6-ylmethyl)carbamate]
pIC50 (MYC): < 4.52
pIC50 (MCL-1): < 4.52
pIC50 (CCND1): < 4.52
pIC50 (CCNTB1): 4.52 to 4.70

Structure (SMILES): O=C(NCc1cccc(F)c1)O[C@@H]1[C@@H](O)CN[C@@H]1Cc1ccc(-c2ccc3ncsc3c2)cc1 [V192103, (2R,3S,4S)-2-{[4-(1,3-benzothiazol-6-yl)phenyl]methyl}-4-hydroxypyrrolidin-3-yl N-[(3-fluorophenyl)methyl]carbamate]
pIC50 (MYC): > 5.00
pIC50 (MCL-1): > 5.00
pIC50 (CCND1): 4.70 to 5.00
pIC50 (CCNTB1): > 5.00

Structure (SMILES): O=C(NCC[C@H]1CCCN1)O[C@@H]1[C@@H](O)CN[C@@H]1Cc1ccc(-c2ccc3c(c2)CC(F)(F)C3)cc1 [V192040, (2R,3S,4S)-2-{[4-(2,2-difluoro-1,3-dihydroinden-5-yl)phenyl]methyl}-4-hydroxypyrrolidin-3-yl N-{2-[(2R)-pyrrolidin-2-yl]ethyl}carbamate]
pIC50 (MYC): 4.70 to 5.00
pIC50 (MCL-1): 4.70 to 5.00
pIC50 (CCND1): 4.52 to 4.70
pIC50 (CCNTB1): > 5.00

Structure (SMILES): O=C(NCC[C@@H]1CCCN1)O[C@@H]1[C@@H](O)CN[C@@H]1Cc1ccc(-c2cncs2)cc1 [V192113, (2R,3S,4S)-4-hydroxy-2-{[4-(1,3-thiazol-5-yl)phenyl]methyl}pyrrolidin-3-yl N-{2-[(2S)-pyrrolidin-2-yl]ethyl}carbamate]
pIC50 (MYC): > 5.00
pIC50 (MCL-1): > 5.00
pIC50 (CCND1): > 5.00
pIC50 (CCNTB1): > 5.00

Structure (SMILES): O=C(NCC[C@@H]1CCCN1)O[C@@H]1[C@@H](O)CN[C@@H]1Cc1ccc(-c2ccc(Cl)s2)cc1 [V191891, (2R,3S,4S)-2-{[4-(5-chlorothiophen-2-yl)phenyl]methyl}-4-hydroxypyrrolidin-3-yl N-{2-[(2S)-pyrrolidin-2-yl]ethyl}carbamate]
pIC50 (MYC): > 5.00
pIC50 (MCL-1): > 5.00
pIC50 (CCND1): 4.70 to 5.00
pIC50 (CCNTB1): > 5.00

Continued, in another order:

pIC50 (MCL-1): > 5.00
pIC50 (CCND1): > 5.00
pIC50 (CCNTB1): > 5.00
Structure (SMILES): O=C(NCc1ccc2c(c1)CCNC2)O[C@@H]1[C@@H](O)CN[C@@H]1Cc1ccc(-c2cnco2)cc1 [V192056, (2R,3S,4S)-4-hydroxy-2-{[4-(1,3-oxazol-5-yl)phenyl]methyl}pyrrolidin-3-yl N-(1,2,3,4-tetrahydroisoquinolin-6-ylmethyl)carbamate]
pIC50 (MYC): > 5.00

pIC50 (MCL-1): 4.52 to 4.70
pIC50 (CCND1): < 4.52
pIC50 (CCNTB1): 4.70 to 5.00
Structure (SMILES): COc1ccc(C[C@H]2NC[C@H](O)[C@H]2OC(=O)N[C@@H](C)c2ccccc2)cc1 [V191971, (2R,3S,4S)-4-hydroxy-2-[(4-methoxyphenyl)methyl]pyrrolidin-3-yl N-[(1S)-1-phenylethyl]carbamate]
pIC50 (MYC): 4.70 to 5.00

pIC50 (MCL-1): 4.52 to 4.70
pIC50 (CCND1): < 4.52
pIC50 (CCNTB1): 4.70 to 5.00
Structure (SMILES): O=C(NCCC1CCNCC1)O[C@@H]1[C@@H](O)CN[C@@H]1Cc1ccc(-c2ccc3c(c2)CC(F)(F)C3)cc1 [V192053, (2R,3S,4S)-2-{[4-(2,2-difluoro-1,3-dihydroinden-5-yl)phenyl]methyl}-4-hydroxypyrrolidin-3-yl N-[2-(piperidin-4-yl)ethyl]carbamate]
pIC50 (MYC): < 4.52

pIC50 (MCL-1): > 5.00
pIC50 (CCND1): > 5.00
pIC50 (CCNTB1): > 5.00
Structure (SMILES): O=C(NCC(F)F)O[C@@H]1[C@@H](O)CN[C@@H]1Cc1ccc(-c2cnco2)cc1 [V192264, (2R,3S,4S)-4-hydroxy-2-(4-(oxazol-5-yl)benzyl)pyrrolidin-3-yl (2,2-difluoroethyl)carbamate]
pIC50 (MYC): > 5.00

pIC50 (MCL-1): < 4.52
pIC50 (CCND1): < 4.52
pIC50 (CCNTB1): 4.52 to 4.70
Structure (SMILES): O=C(NCc1cccc(F)c1)O[C@@H]1[C@@H](O)CN[C@@H]1Cc1ccc(-c2cnoc2)cc1 [V190543, (2R,3S,4S)-4-hydroxy-2-{[4-(1,2-oxazol-4-yl)phenyl]methyl}pyrrolidin-3-yl N-[(3-fluorophenyl)methyl]carbamate]
pIC50 (MYC): > 5.00
